This passage reports IC50 results from publication PMC9821907, “Synthesis and Antiprotozoal Activity of Azabicyclo-Nonane Pyrimidine Hybrids” (Molecules, 2022).

Read-outs that look alike come from different tables or passages of the source.

Usually IC50 stands for the concentration at which inhibition is half-maximal.

In one series the test system is P. falciparum NF54. The series is described as follows: In vitro microplate 3H-hypoxanthine incorporation assay against P. falciparum NF54. To be noted: Plasmodium falciparum. It is filed as cell-based. On the procedure:
(§1) Compounds were tested for their activities against Plasmodium falciparum NF54 (sensitive to chloroquine) and Trypanosoma brucei rhodesiense STIB900, via serial dilution assays. Furthermore, selected compounds were tested against the K1 strain of Plasmodium falciparum (resistant against chloroquine, sulfadoxine and pyrimethamine). Their cytotoxicity was determined with rat skeletal myoblasts (L-6 cells).
(§2) In vitro activity against erythrocytic stages of P. falciparum was determined using a ^3H-hypoxanthine incorporation assay using the drug sensitive NF54 strain [27] or the chloroquine- and pyrimethamine-resistant K1 strain [28]. Compounds were dissolved in DMSO at 10 mg/mL and further diluted in medium before being added to parasite cultures incubated in RPMI 1640 medium without hypoxanthine, supplemented with HEPES (5.94 g/L), NaHCO3 (2.1 g/L), neomycin (100 U/mL), Albumax® (5 g/L) and washed human red cells A+ at 2.5% haematocrit (0.3% parasitaemia). Serial drug dilutions of eleven 3-fold dilution steps covering a range from 100 to 0.002 μg/mL were prepared. The 96-well plates were incubated in a humidified atmosphere at 37 °C; 4% CO2, 3% O2, 93% N2. After 48 h, 0.05 mL of ^3H-hypoxanthine (= 0.5 μCi) was added to each well of the plate. The plates were incubated for a further 24 h under the same conditions. The plates were then harvested with a Betaplate™ cell harvester (Wallac, Zurich, Switzerland), and the red blood cells transferred onto a glass fibre filter then washed with distilled water. The dried filters were inserted into a plastic foil with 10 mL of scintillation fluid, and counted in a Betaplate™ liquid scintillation counter (Wallac, Zurich, Switzerland). IC50 values were calculated from sigmoidal inhibition curves by linear regression using Microsoft Excel. Chloroquine (Sigma C6628) was used as control.

The nature of the next series: in vitro. The conditions noted are these: rat. As for the experimental part: as §1
Assays were performed in 96-well microtiter plates, each well containing 0.1 mL of RPMI 1640 medium supplemented with 1% L-glutamine (200 mM) and 10% fetal bovine serum, and 4000 L-6 cells (a primary cell line derived from rat skeletal myoblasts, ATCC CRL-1458™). Serial drug dilutions of eleven 3-fold dilution steps covering a range from 100 to 0.002 μg/mL were prepared. After 70 h of incubation the plates were inspected under an inverted microscope to assure growth of the controls and sterile conditions. Then, 0.01 mL resazurin solution (resazurin, 12.5 mg in 100 mL double-distilled water) was added to each well and the plates incubated for another 2 h. The plates were read with a Spectramax Gemini XS microplate fluorometer (Molecular Devices Cooperation, Sunnyvale, CA, USA) using an excitation wave length of 536 nm and an emission wave length of 588 nm. The IC50 values were calculated by linear regression from the sigmoidal dose inhibition curves using SoftmaxPro software (Molecular Devices Cooperation, Sunnyvale, CA, USA). Podophyllotoxin (Sigma P4405) was used as control.

In another series the test system is P. falciparum K1. Kind of series: In vitro microplate 3H-hypoxanthine incorporation assay against P. falciparum K1. It counts as cell-based, Plasmodium falciparum. On the procedure:
as §1, §2

The subject of series [1] is T. brucei rhodesiense STIB900. Kind of series: In vitro microplate resazurin assay against T. brucei rhodesiense. It is filed as cell-based. The conditions noted are these: Trypanosoma brucei, read-out: T. brucei rhodesiense STIB900 IC50. As for the experimental part:
as §1
Minimum essential medium (50 µL) supplemented with 25 mM HEPES, 1g/L additional glucose, 1% MEM non-essential amino acids (100×), 0.2 mM 2-mercaptoethanol, 1mM Na-pyruvate and 15% heat-inactivated horse serum was added to each well of a 96-well microtiter plate. Serial drug dilutions of eleven 3-fold dilution steps covering a range from 100 to 0.002 μg/mL were prepared. Then 4 × 10^3 bloodstream forms of T. b. rhodesiense STIB 900 in 50 µL was added to each well and the plate incubated at 37 °C under a 5 % CO2 atmosphere for 70 h. Next, 10 µL resazurin solution (resazurin, 12.5 mg in 100 mL double-distilled water) was added to each well and incubation continued for a further 2–4 h. Then the plates were read with a Spectramax Gemini XS microplate fluorometer (Molecular Devices Cooperation, Sunnyvale, CA, USA) using an excitation wave length of 536 nm and an emission wave length of 588 nm. Data were analyzed with the graphic programme Softmax Pro (Molecular Devices Cooperation, Sunnyvale, CA, USA), which calculated IC50 values by linear regression and 4-parameter logistic regression from the sigmoidal dose inhibition curves. Melarsoprol (Arsobal Sanofi-Aventis, received from WHO) was used as control.

Where [2] appears, read: NF54 strain, sensitive to chloroquine and pyrimethamine, average of four determinations, read-out: P. falciparum NF54 IC50.
The mark [3] stands for this setting: Plasmodium falciparum, K1, K1 strain, resistant to chloroquine, sulfadoxine and pyrimethamine, average of four determinations, read-out: P. falciparum K1 IC50.
Where [4] appears, read: bloodstream forms, average of four determinations.
Where [5] appears, read: K1 strain, resistant to chloroquine, sulfadoxine and pyrimethamine, average of four determinations, read-out: P. falciparum K1 IC50.

For `Cc1cc(N2CCC3(N4CCCCC4)CC(c4ccccc4)C2C(c2ccccc2)C3)nc(N)n1` (racemic) [Compound 5, rac-4-[(7R,8R)-7,8-diphenyl-5-(piperidin-1-yl)-2-azabicyclo[3.2.2]nonan-2-yl]-6-methylpyrimidin-2-amine], the IC50 amounted to 212 ± 12 nM in the series with P. falciparum NF54 (setting [2]), 140 ± 33 nM with P. falciparum K1 (setting [3]) and 3310 ± 235 nM in series [1] (setting [4]). For the same compound, the IC50 at 72 h in the series “in vitro” worked out at 10600 ± 1940 nM.
As for `Cc1cc(N2CCC3(N4CCCC4)CC(c4ccccc4)C2C(c2ccccc2)C3)nc(N)n1` (racemic) [Compound 6, rac-4-[(7R,8R)-7,8-diphenyl-5-(pyrrolidin-1-yl)-2-azabicyclo[3.2.2]nonan-2-yl]-6-methylpyrimidin-2-amine], the IC50 with P. falciparum NF54 (setting [2]) stood at 88 ± 57 nM; in series [1] (setting [4]), 161 nM. Further, 12500 ± 3310 nM corresponded to half-maximal inhibition in the series “in vitro” (IC50 at 72 h).
On to `Cc1cc(N2CC3C(c4ccccc4)CC(N4CCCCC4)(CC3c3ccccc3)C2)nc(N)n1` (racemic) [Compound 7], for which the IC50 in the series with P. falciparum NF54 (setting [2]) was 24 ± 4 nM; with P. falciparum K1 (setting [5]) it was 51 ± 24 nM; with P. falciparum K1 (setting [3]) it was 51 to 94 nM; in series [1] (setting [4]), 573 ± 132 nM. In “in vitro”, this compound came in with a 50% inhibitory concentration (IC50) at 72 h of 8000 ± 1890 nM.
As for `Cc1cc(N2CC3C(c4ccccc4)CC(N4CCCC4)(CC3c3ccccc3)C2)nc(N)n1` (racemic) [Compound 8], the results for the 50% inhibitory concentration (IC50) (in the series on P. falciparum NF54 (setting [2]); in series [1] (setting [4])) were 62 ± 1 nM and 322 ± 151 nM, respectively. The compound further had a concentration for half-maximal inhibition (IC50) at 72 h in the series “in vitro” of 4480 ± 1440 nM.
For the compound `Nc1cc(N2CCC3(N4CCCCC4)CC(c4ccccc4)C2C(c2ccccc2)C3)nc(N)n1` (racemic) [Compound 9, rac-6-[(7R,8R)-7,8-diphenyl-5-(piperidin-1-yl)-2-azabicyclo[3.2.2]nonan-2-yl]pyrimidine-2,4-diamine], the IC50 with P. falciparum NF54 (setting [2]) is 51 ± 7 nM; with P. falciparum K1 (setting [5]), 94 ± 4 nM; in the series on P. falciparum K1 (setting [3]), 51 to 94 nM; in series [1] (setting [4]), 1560 ± 643 nM. Also, the IC50 at 72 h in the series “in vitro” came to 9730 ± 661 nM.
Consider `Nc1cc(N2CCC3(N4CCCC4)CC(c4ccccc4)C2C(c2ccccc2)C3)nc(N)n1` (racemic) [Compound 10, rac-6-[(7R,8R)-7,8-diphenyl-5-(pyrrolidin-1-yl)-2-azabicyclo[3.2.2]nonan-2-yl]pyrimidine-2,4-diamine], for which the IC50 with P. falciparum NF54 (setting [2]) came out at 79 ± 1 nM; in the series on P. falciparum K1 (setting [3]), 216 ± 37 nM; in series [1] (setting [4]) it was 853 ± 16 nM. Besides, in the series “in vitro”, the IC50 at 72 h worked out at 11260 ± 33 nM.
On the same counts, the results for `Nc1cc(N2CC3C(c4ccccc4)CC(N4CCCCC4)(CC3c3ccccc3)C2)nc(N)n1` (racemic) [Compound 11] are 23 ± 1 nM, 87 ± 2 nM, 201 ± 39 nM and 4330 ± 235 nM.
On the same counts, the results for `Nc1cc(N2CC3C(c4ccccc4)CC(N4CCCC4)(CC3c3ccccc3)C2)nc(N)n1` (racemic) [Compound 12] are 33 ± 16 nM, 172 ± 51 nM, 946 ± 374 nM and 11100 ± 836 nM.
On the same counts, the results for `Cc1cc(N2CCC3(N4CCCCC4)C[C@H](c4ccccc4)C2[C@@H](c2ccccc2)C3)nc(Cl)n1` (racemic) [Compound 13, rac-(7R,8R)-2-(2-chloro-6-methylpyrimidin-4-yl)-7,8-diphenyl-5-(piperidin-1-yl)-2-azabicyclo[3.2.2]nonane] are 694 ± 18 nM, 567 ± 47 nM, 1550 ± 47 nM and 3100 ± 51 nM.
With `Cc1cc(N2CCC3(N4CCCC4)C[C@H](c4ccccc4)C2[C@@H](c2ccccc2)C3)nc(Cl)n1` (racemic) [Compound 14, rac-(7R,8R)-2-(2-chloro-6-methylpyrimidin-4-yl)-7,8-diphenyl-5-(pyrrolidin-1-yl)-2-azabicyclo[3.2.2]nonane], the half-inhibitory concentration (IC50) with P. falciparum NF54 (setting [2]) stood at 1040 ± 302 nM; in the series with P. falciparum K1 (setting [3]), 366 ± 95 nM; in series [1] (setting [4]) it was 1640 ± 22 nM. Further, the half-maximal inhibitory concentration (IC50) at 72 h in the series “in vitro” was determined as 9620 ± 1100 nM.
For `Cc1cc(N2CC3C(c4ccccc4)CC(N4CCCCC4)(CC3c3ccccc3)C2)nc(Cl)n1` (racemic) [Compound 15, rac-(7R,8R)-3-(2-chloro-6-methylpyrimidin-4-yl)-6,9-diphenyl-1-(piperidin-1-yl)-3-azabicyclo[3.2.2]nonane], the results for the IC50 (in the series with P. falciparum NF54 (setting [2]); in the series on P. falciparum K1 (setting [3]); in series [1] (setting [4])) were 1490 ± 784 nM, 2080 ± 430 nM and 9510 ± 914 nM, respectively. Also, the IC50 at 72 h in the series “in vitro” was 27200 ± 11800 nM.
Consider `Cc1cc(N2CC3C(c4ccccc4)CC(N4CCCC4)(CC3c3ccccc3)C2)nc(Cl)n1` (racemic) [Compound 16, rac-(7R,8R)-3-(2-chloro-6-methylpyrimidin-4-yl)-6,9-diphenyl-1-(pyrrolidin-1-yl)-3-azabicyclo[3.2.2]nonane], for which the results for the 50% inhibitory concentration (IC50) (with P. falciparum NF54 (setting [2]); with P. falciparum K1 (setting [3]); in series [1] (setting [4])) were 281 ± 6 nM, 292 ± 21 nM and 4310 ± 21 nM, respectively. The compound also gave an IC50 at 72 h in the series “in vitro” of 12500 ± 1440 nM.
On to `Cc1cc(N2CCC3(N4CCCCC4)C[C@H](c4ccccc4)C2[C@@H](c2ccccc2)C3)nc(N2CCCC2)n1` (racemic) [Compound 17, rac-(7R,8R)-2-[6-methyl-2-(pyrrolidin-1-yl)pyrimidin-4-yl]-7,8-diphenyl-5-(piperidin-1-yl)-2-azabicyclo[3.2.2]nonane], for which the IC50 turned out to be 617 ± 8 nM with P. falciparum NF54 (setting [2]) and 575 ± 33 nM in series [1] (setting [4]). This compound yielded a 50% inhibitory concentration (IC50) at 72 h in the series “in vitro” of 23200 ± 9930 nM.
On the same counts, the results for `Cc1cc(N2CCC3(N4CCCCC4)C[C@H](c4ccccc4)C2[C@@H](c2ccccc2)C3)nc(N2CCCCC2)n1` (racemic) [Compound 21, rac-(7R,8R)-2-[6-methyl-2-(piperidin-1-yl)pyrimidin-4-yl]-7,8-diphenyl-5-(piperidin-1-yl)-2-azabicyclo[3.2.2]nonane] are 4700 ± 1180 nM, 8720 ± 4200 nM and 104000 ± 27000 nM.
On the same counts, the results for `Cc1cc(N2CCC3(N4CCCC4)C[C@H](c4ccccc4)C2[C@@H](c2ccccc2)C3)nc(N2CCCCC2)n1` (racemic) [Compound 22, rac-(7R,8R)-2-[6-methyl-2-(piperidin-1-yl)pyrimidin-4-yl]-7,8-diphenyl-5-(pyrrolidin-1-yl)-2-azabicyclo[3.2.2]nonane] are 406 ± 15 nM, 107 ± 49 nM and 6730 ± 3080 nM.
On the same counts, the results for `Cc1cc(N2CC3C(c4ccccc4)CC(N4CCCC4)(CC3c3ccccc3)C2)nc(N2CCCCC2)n1` (racemic) [Compound 24, rac-(7R,8R)-3-[6-methyl-2-(piperidin-1-yl)pyrimidin-4-yl]-6,9-diphenyl-1-(pyrrolidin-1-yl)-3-azabicyclo[3.2.2]nonane] are 3790 ± 163 nM, 1450 ± 116 nM and 61800 ± 27900 nM.
Consider `CCN(CC)CCCC(C)Nc1ccnc2cc(Cl)ccc12` (centres unmarked) [CQ, chloroquine, reference compound], for which the concentration for half-maximal inhibition (IC50) in the series on P. falciparum NF54 (NF54, read-out: P. falciparum NF54 IC50) stood at 3.9 nM; in the series with P. falciparum K1 (Plasmodium falciparum, K1, read-out: P. falciparum K1 IC50) it was 163 nM. The compound also registered an IC50 at 72 h in “in vitro” of 90900 nM.
`Nc1nc(N)nc(Nc2ccc([As]3SCC(CO)S3)cc2)n1` (centres unmarked) [MEL, melarsoprol, reference compound] came in with a half-inhibitory concentration (IC50) at 72 h in “in vitro” of 7780 nM. In addition, the IC50 in series [1] turned out to be 10 nM.
